Each structure is given as a SMILES string. Values after ≈ are worked out from the molar mass of the structure shown. Where two headings read alike, the source gives them in different places.

The values below come from US20080103191A1, “ENTACAPONE-DERIVATIVES” (priority 2006, published 2008).

Series [1] in a line: Chemical hydrolysis stability at pH 1 and pH 7.4 (HPLC). It counts as physicochemical. The conditions noted are these: 37° C., over 12 h. The method, then:
The stability of compounds of the present invention is tested at pH 1 and at pH 7.4. The testing is carried out by the following HPLC method:
Chemical hydrolysis rates t1/2 [h] of selected compounds of formula I are determined in 0.1 N HCl (pH 1) and PBS buffer (pH 7.4) solution. Solutions are prepared by dissolving an appropriate amount of compound in 0.1 N HCl and PBS buffer solution. Samples were withdrawn at designated time intervals and analysed for remaining prodrug by HPLC at 37° C. over 12 h.
Reversed phase gradient HPLC method, column YMC Pro C8, 50 mm×4.0 mm, 3 μm, Eluent A: Water:trifluoroacetic acid (100:0.5 (v/v)), Eluent B: Acetonitrile:trifluoroacetic:acid (100:0.5 (v/v)). Column temperature 30° C., Flow rate 3.0 mL/min, Detection wavelength: 220 nm
For evaluation, the peak area of the respective compound from the first injection is defined as 100% relative concentration. The peak areas of all other subsequent injections are calculated in percentage relating to this standard. (relative concentration in %). The relative concentrations are plotted in a logarithmic scale (ln) against the injection times. Based on the assumption of a first order kinetic, the rate constant and half life times (t1/2 [h]) can be calculated.

Series [2] in a line: Log D (pH 7.4) by isocratic HPLC. It counts as physicochemical. The conditions noted are these: YMC Pro C18 column, phosphate buffer pH 7.4/acetonitrile 45/55. The method, then: LogD is an indicator for absorption and lipophilicity for ionized compounds under defined pH conditions and is measured by applying an isocratic HPLC Method at pH 7.4.
The log D has been tested at pH 7.4. The testing has been carried out by the following method: Isocratic HPLC method: Column YMC Pro C18, 150 mm×4.0 mm, 3 μm, Eluent Phosphate buffer pH 7.4/acetonitrile (45/55, (v/v)), Runtime 15-60 min, Flow rate 1.2 ml/min, Detection wavelength: 220 nm

The nature of a further series: Plasma stability ex vivo. The conditions noted are these: human plasma, 37° C., read-out: t1/2 plasma. The format is in vitro ADME. The protocol:
Plasma stability is determined in human and rat plasma ex vivo. For the determination of the plasma stability of the compounds of formula I, the test compounds were incubated with human plasma (c=5 μg/mL) at 37° C. for certain time intervals up to 60, resp. 120 min (depending on the compound). Afterwards the incubations were stopped by equivalent addition of acetonitrile for protein precipitation, and the samples were mixed and centrifuged. The supernatants were adequately diluted and analyzed by HPLC with UV detection at 305 nm.
The degradation of the compounds of formula I as well as the formation of the active drug entacapone were monitored, and the half-life times of the compounds of formula I were calculated from the obtained peak areas.

Series [3] in a line: Permeability in Caco-2 cells, apical to basolateral. The format is in vitro ADME. Further details: dose or concentration left out as unconfirmed. The conditions noted are these: human; 21d Caco-2 monolayer, apical pH 6.5 to basolateral pH 7.4, 60 minutes. An excerpt: The human adenocarcinoma cell line Caco-2 is used as an in vitro system to predict oral absorption. These cells serve as a model of small bowel tissue and permeation through these cells is a predictor for gastro-intestinal absorption. Further to being a model for oral absorption, permeability in Caco-2 cells may be predictive for the blood brain barrier permeability (P. Garberg et al.; Toxicology in vitro 19 (2005); 299-334). […] The permeability in Caco-2 cells has been tested by the following method:
The permeability of selected compounds of formula I across Caco-2 (21d Caco-2-culture) monolayer in the apical to basolateral direction is investigated. Control substances were ^3H-propranolol and ^3H-mannitol.
The nominal concentration of the test items is […]. The pH value is set to 6.5 for the apical transport medium and to 7.4 for the basolateral medium. Samples are obtained following 60 minutes (120 minutes for control samples) incubation from the basolateral receiver chamber. At sampling time approximately 600 μL of each well are transferred into an eppendorf vial and stored between −12° and −30° C. until HPLC or LC-MS/MS analysis. The control substances are quantified by liquid scintillation.
On the technique in general: Caco-2 monolayers are a common model of the intestinal barrier.

A short description of series [4]: Solubility in 0.1 N HCl, PBS buffer, FaSSIF and FeSSIF. It counts as physicochemical. The settings on record: thermodynamic from solid, ambient temperature. The method, then:
For testing solubility, saturated solutions of selected compounds of formula I are prepared in four different systems and compared to the solubility of entacapone. The solubility is tested in 0.1 N HCl (pH 1), PBS buffer (pH 7.4) and in two simulated gastric fluids, FaSSIF at pH 6.5 (for fasting state) and FeSSIF at pH 5.0 (for fed state) at ambient temperature. The content of the FaSSIF simulated gastric fluid is as follows:
The solubility testing is carried out by the following method: An excess amount of each compound is added to a 0.1 N HCl, PBS buffer, FeSSIF and FaSSIF. The suspensions are shaken for 10 min. After centrifugation the concentration is determined by HPLC. Reversed phase gradient HPLC method, column YMC Pro C8, 50 mm×4.0 mm, 3 μm, Eluent A: Water:trifluoroacetic acid (100:0.5 (v/v)), Eluent B: Acetonitrile:trifluoroacetic:acid (100:0.5 (v/v)). Column temperature 30° C., Flow rate 3.0 mL/min, Detection wavelength: 220 nm

[5] abbreviates: pH 1, 0.1 N HCl, read-out: t1/2 at pH 1 (converted).
The mark [6] stands for this setting: pH 7.4, PBS buffer, read-out: t1/2 at pH 7.4 (converted).
The mark [7] stands for this setting: 0.1 N HCl, pH 1, simulated gastric fluid, shaken 10 min, read-out: Solubility 0.1N HCl Ph 1.0.
The mark [8] stands for this setting: FaSSIF, pH 6.5, fassif, fasting state fluid, read-out: Solubility FaSSIF Ph 6.5.
[9] abbreviates: FeSSIF, pH 5, fessif, fed state fluid, read-out: Solubility FeSSIF Ph 5.0.
Setting [10] is: PBS buffer, pH 7.4, aqueous buffer, read-out: Solubility PBS Ph 7.4.

On to `CCN(CC)C(=O)/C(C#N)=C/c1cc(OC(=O)OCC(C)C)c(O)c([N+](=O)[O-])c1` [Compound 1, Carbonic acid 5-((E)-2-cyano-2-diethylcarbamoyl-vinyl)-2-hydroxy-3-nitro-phenyl ester isobutyl ester], for which the half-life is 6.8 h in series [1] (setting [5]) and 11.6 h in series [1] (setting [6]). This molecule gave a chromatographic logD in series [2] of 1.4. In addition, the half-life at 5 μg/mL in “Plasma stability ex vivo” turned out to be 0.128 h. Further, the Papp A→B at 60 min in series [3] is 24 ×10⁻⁶ cm/s. In addition, the solubility at 10 min in series [4] (setting [7]) was 20 µg/mL (≈ 49.3 µM); in series [4] (setting [8]), 530 µg/mL (≈ 1310 µM); in series [4] (setting [9]), 200 µg/mL (≈ 493 µM); in series [4] (setting [10]) it was 530 µg/mL (≈ 1310 µM).

Consider `CCN(CC)C(=O)/C(C#N)=C/c1cc(OC(=O)OC(C)C)c(O)c([N+](=O)[O-])c1` [Compound 7, Carbonic acid 5-((E)-2-cyano-2-diethylcarbamoyl-vinyl)-2-hydroxy-3-nitro-phenyl ester isopropyl ester], for which the half-life in series [1] (setting [5]) is 2.7 h; in series [1] (setting [6]), 23.1 h. The chromatographic logD in series [2] was 1. The half-life at 5 μg/mL in the series “Plasma stability ex vivo” was determined as 0.223 h. The same molecule gave a Papp A→B at 60 min in series [3] of 31 ×10⁻⁶ cm/s. Further, the solubility at 10 min was 3 µg/mL (≈ 7.67 µM) in series [4] (setting [7]), 750 µg/mL (≈ 1920 µM) in series [4] (setting [8]), 90 µg/mL (≈ 230 µM) in series [4] (setting [9]) and 950 µg/mL (≈ 2430 µM) in series [4] (setting [10]).

In the case of `CCCOC(=O)Oc1cc(/C=C(\C#N)C(=O)N(CC)CC)cc([N+](=O)[O-])c1O` [Compound 41, Carbonic acid 5-((E)-2-cyano-2-diethylcarbamoyl-vinyl)-2-hydroxy-3-nitro-phenyl ester propyl ester], the half-life is 23.1 h in series [1] (setting [5]) and 7.2 h in series [1] (setting [6]). The molecule also showed a chromatographic logD in series [2] of 1.2. For the same molecule, the half-life at 5 μg/mL in “Plasma stability ex vivo” was determined as 0.112 h. The Papp A→B at 60 min in series [3] is 18 ×10⁻⁶ cm/s. Besides, the solubility at 10 min in series [4] (setting [7]) was 10 µg/mL (≈ 25.6 µM); in series [4] (setting [8]), 290 µg/mL (≈ 741 µM); in series [4] (setting [9]) it was 200 µg/mL (≈ 511 µM); in series [4] (setting [10]), 470 µg/mL (≈ 1200 µM).

Regarding `CCN(CC)C(=O)/C(C#N)=C/c1cc(OC(=O)OC2CCCCC2)c(O)c([N+](=O)[O-])c1` [Compound 51, Carbonic acid 5-((E)-2-cyano-2-diethylcarbamoyl-vinyl)-2-hydroxy-3-nitro-phenyl ester cyclohexyl ester], the half-life in series [1] (setting [5]) is less than 1 h; in series [1] (setting [6]), 19.3 h. Further, the chromatographic logD in series [2] was 1.8. Also, the half-life at 5 μg/mL in “Plasma stability ex vivo” came out at 0.64 h. The same molecule came in with a Papp A→B at 60 min in series [3] of 45 ×10⁻⁶ cm/s. The solubility at 10 min in series [4] (setting [7]) was less than 10 µg/mL; in series [4] (setting [8]) it was 1200 µg/mL (≈ 2780 µM); in series [4] (setting [9]), 140 µg/mL (≈ 324 µM); in series [4] (setting [10]), 810 µg/mL (≈ 1880 µM).

Consider `CCN(CC)C(=O)/C(C#N)=C/c1cc(OC(=O)OCCc2cccs2)c(O)c([N+](=O)[O-])c1` [Compound 61, Carbonic acid 5-((E)-2-cyano-2-diethylcarbamoyl-vinyl)-2-hydroxy-3-nitro-phenyl ester 2-thiophen-2-yl-ethyl ester], for which the half-life in series [1] (setting [5]) was 12.8 h; in series [1] (setting [6]), 4 h. Further, the chromatographic logD in series [2] was 1.7. The half-life at 5 μg/mL in the series “Plasma stability ex vivo” worked out at 0.47 h. The apparent permeability from apical to basolateral (Papp A→B) at 60 min in series [3] stood at 36 ×10⁻⁶ cm/s. Moreover, the values for the solubility at 10 min in series [4] (setting [8]), in series [4] (setting [9]) and in series [4] (setting [10]) were 240 µg/mL (≈ 522 µM), 40 µg/mL (≈ 87.1 µM) and 490 µg/mL (≈ 1070 µM), respectively.

As to `C=CCOC(=O)Oc1cc(/C=C(\C#N)C(=O)N(CC)CC)cc([N+](=O)[O-])c1O` [Compound 65, Carbonic acid allyl ester 5-((E)-2-cyano-2-diethylcarbamoyl-vinyl)-2-hydroxy-3-nitro-phenyl ester], the results for the half-life in series [1] (setting [5]) and in series [1] (setting [6]) were 16.5 h and 4.1 h, respectively. Besides, in series [2], the chromatographic logD turned out to be 1. Also, in “Plasma stability ex vivo”, the half-life at 5 μg/mL was determined as 0.0167 h. Also, in series [3], the apical-to-basolateral permeability (Papp A→B) at 60 min was 8.5 ×10⁻⁶ cm/s.

Regarding `CCN(CC)C(=O)/C(C#N)=C/c1cc(OC(=O)OC2CC3CCC2(C)C3(C)C)c(O)c([N+](=O)[O-])c1` (stereo not drawn) [Compound 67, Carbonic acid 5-((E)-2-cyano-2-diethylcarbamoyl-vinyl)-2-hydroxy-3-nitro-phenyl ester 1,7,7-trimethyl-bicyclo[2.2.1]hept-2-yl ester], the figures for the half-life in series [1] (setting [5]) and in series [1] (setting [6]) were 12.8 h and 14.4 h, respectively. The molecule also registered a chromatographic logD in series [2] of 2.8. Further, in the series “Plasma stability ex vivo”, the half-life at 5 μg/mL was found to be 0.0467 h. For the same molecule, the Papp A→B at 60 min in series [3] stood at 14.8 ×10⁻⁶ cm/s.

With `CCOC(=O)Oc1cc(/C=C(\C#N)C(=O)N(CC)CC)cc([N+](=O)[O-])c1O` [Compound 71, Carbonic acid 5-((E)-2-cyano-2-diethylcarbamoyl-vinyl)-2-hydroxy-3-nitro-phenyl ester ethyl ester], the half-life in series [1] (setting [5]) is 28.9 h; in series [1] (setting [6]), 8.3 h. The chromatographic logD in series [2] amounted to 0.8. In the series “Plasma stability ex vivo”, the half-life at 5 μg/mL came out at 0.0133 h. Also, the apical-to-basolateral permeability (Papp A→B) at 60 min in series [3] stood at 7.7 ×10⁻⁶ cm/s. For the same molecule, the solubility at 10 min was 70 µg/mL (≈ 186 µM) in series [4] (setting [7]), 570 µg/mL (≈ 1510 µM) in series [4] (setting [8]), 1100 µg/mL (≈ 2920 µM) in series [4] (setting [9]) and 800 µg/mL (≈ 2120 µM) in series [4] (setting [10]).

For orientation: chromatographic logD means lipophilicity estimated from chromatographic retention. The term Papp A→B denotes how fast a substance crosses the layer from the apical side. One may read the solubility as how much of the substance goes into solution per volume.
